# Measured values published in patent EP0519427A2, “N-substituted-3-iodopropiolamide, production and use thereof” (priority 1991, dated 1992).
# System: Aspergillus Niger (IFO 6341), Penicillium funiculosum (IFO 6345), Rhizopus javanicus (IFO 6354), Aureobasidium pullulans (IFO 6353), Gliocladium virens (IFO …)
# Assay: Fungicide activity for wood fungicide, sum of average ratings and damage value over the five fungi
# Type: cell-based
# Settings: for damage value: D = S₁ / S₀ × 100, untreated 100.0, lower = higher fungicide activity; for Sum (of average rating values A₁ to A₅): S = A₁ + A₂ + A₃ + A₄ + A₅, untreated 15.0; for wood fungicide activity (statement in words): summary of Table 3
# Method: This test was conducted according to Specification No.2 of Japan Wood Preserving Association, enacted in 1979 and titled "Test methods of fungicide activity for wood fungicide".
# • ① Aspergillus niger van Tieghem IFO 6341 = ATCC 6275 • ② Penicillium funiculosum Thom (formerly : Penicillium luteum Zukal) IFO 6345 = ATCC 9644 • ③ Rhizopus javanicus Takeda (formerly : Rhizopus nigricans Ehrenberg S.N. 32) IFO 6354 • ④ Aureobasidium pullulans (de Bary) Arnaud IFO 6353 = IAM (H. Iizuka, F-24) • ⑤ Gliocladium virens Miller, Gidden & Fosteb IFO 6355 = ATCC 9645 (formerly : Trichoderma viride, T.I.)
# The fungi ① , ② , ③ and ⑤ are classified as fungi imperfecti, and the fungus ④ as blue stain fungus.
# The Culture medium comprised the potato-sap agar culture medium (specified in the Japan Industrial Standard (JIS) Z 2911- 1960) of 50 ml, put in the conical flask of 100 ml, sterilized by steam at 1.4-1.6 kgf/cm² .G (137.2-156.8 KPa) for 30 minutes.
# The fungi to be used were inoculated into the culture medium specified in the previous section and were cultured at 26 ± 2 °C under the relative humidity of 70-80 % for two weeks.
# The potato sap of 50 ml, sterilized, cooled to room temperature and to which dioctyl sodium sulfosuccinate, a wetting agent, was added so as to become 0.005 %, was dropped to the fully breeding fungi layer, and was agitated with a platinum spatula in such a way that the spore was torn off. The resulting liquid filtered by sterilized gauze was the spore suspension.
# 3-5-1 A Petri dish measured 90-100 mm in diameter and 20 mm in height.
# 3-5-2 Agar liquid (which has no nutrients) of 2 % sterilized by steam was dropped onto the Petri dish sterilized by dry heat, and then was solidified.
# 3-5-3 Three mm diameter sterilized glass bars or plastic nets made of polypropylene, etc. were placed to prevent the test specimens from touching with agar directly.
# 3-6-1 The type of trees for wood specimens was beech. The cross section was of grain face, and the dimension was 20 mm wide 3 mm thick and 50 mm long.
# 3-6-2 Wood specimens were supplied with nutrients in such a way that they were dipped into the potato-sap (the one in the section 3-2, but agar was not added) for 3 minutes.
# 3-6-3 Nutrient-supplied wood specimens, after drying at 60 °C, were used for testing immediately. They were temporarily stored at 0 °C, but they were served to tests as soon as possible.
# The test specimens were of two types, treated and untreated speciments. The treated specimens referred to the one treated with fungicide. The untreated specimens were of two types, the one really untreated and the other treated with solvent only.
# 3-7-2-1 Nutrients-supplied wood specimens were dried at 60 ± 2 °C, and then their weights (W₀) were measured. Test specimens of 10-20 pieces were piled up in a one liter beaker in such a way that two specimens constant space apart from each other were alternately put on the other two specimens also constant space apart from each other. On the top of the two specimens, a weight was placed. Through the test specimens thus arranged, the fungicide solution was introduced. The level of the fungicide solution was one centimeter above the top specimens. The test specimens were dipped for three minutes after the fungicide solution introduction.
# After finishing dipping, the test specimens were wiped softly, and then the weights (W₁) were measured immediately. As control experiment, the same procedure as the above was done using solvent without fungicide.
# 3-7-2-2 The amounts of solution pick-up and fungicide pick-up were calculated with the following equations: The amount of solution absorption: RL = W₁ - W₀ [formula] The amount of fungicide absorption: Rc = RL × fungicide concentration [formula] 3-7-2-3 Wood specimens treated were placed without contacting each other, then were air-dried for two days, and then served as the treated test specimens. […]
Structure (SMILES),damage value,Sum (of average rating values A₁ to A₅),wood fungicide activity (statement in words)
"CC(C)(C)NC(=O)C#CI [Example 1, N-(tert-Butyl)-3-iodopropiolamide]",13.3,2.0,excellent wood fungicide activity
"CCCCCCCCCCNC(=O)C#CI [Example 2, N-(n-Decyl)-3-iodopropiolamide]",62.2,9.3,
"CCCCNC(=O)C#CI [Example 4, N-(n-Butyl)-3-iodopropiolamide]",6.7,1.0,excellent wood fungicide activity
"CCC(C)NC(=O)C#CI (stereo not shown) [Example 5, N-(sec-Butyl)-3-iodopropiolamide]",28.9,4.3,excellent wood fungicide activity
"CC(C)CNC(=O)C#CI [Example 6, N-Isobutyl-3-iodopropiolamide]",20.2,3.0,excellent wood fungicide activity
"CCCCCNC(=O)C#CI [Example 7, N-(n-Pentyl)-3-iodopropiolamide]",34.4,5.2,
"CCCCCCNC(=O)C#CI [Example 8, N-(n-Hexyl)-3-iodopropiolamide]",23.3,3.5,excellent wood fungicide activity
"CCCCCCCNC(=O)C#CI [Example 9, N-(n-Heptyl)-3-iodopropiolamide]",50.0,7.5,
"CCCCCCCCNC(=O)C#CI [Example 10, N-(n-Octyl)-3-iodopropiolamide]",54.4,8.2,
"CCCCCCCCCNC(=O)C#CI [Example 11, N-(n-Nonyl)-3-iodopropiolamide]",82.2,12.3,
